Data on nine molecules can be found in patent US6982348B2, “Aminoethanol derivatives” (Takeda Pharmaceutical Company Limited, priority 2001, dated 2006).

One may read the melting point as the temperature, or range, at which the solid turns liquid. Turning to `O=C(O)c1ccc(COc2ccc([C@@H](O)[C@H](Cc3cccc(OC(F)(F)C(F)F)c3)NC(=O)c3cccc4c3C=CCCC4)cc2)cc1` (racemic) [Example 250, 4-[(4-{(1RS,2SR)-2-[(6,7-dihydro-5H-benzo[a][7]annulen-1-ylcarbonyl)amino]-1-hydroxy-3-[3-(1,1,2,2-tetrafluoroethoxy)phenyl]propyl}phenoxy)methyl]benzoic acid], the melting point fell in the range of 190 to 191 °C.

For `O=C(N[C@H](Cc1cccc(OC(F)(F)C(F)F)c1)[C@@H](O)c1ccc(-c2ccc(CO)cc2)cc1)c1cccc2c1C=CCCC2` (racemic) [Example 304, N-[(1RS,2SR)-2-[4′-(hydroxymethyl)[1,1′-biphenyl]-4-yl]-2-hydroxy-1-[3-(1,1,2,2-tetrafluoroethoxy)benzyl]ethyl]-6,7-dihydro-5H-benzo[a]cycloheptene-1-carboxamide], the melting point was 189 to 191 °C.

The molecule `COCc1ccc(C(=O)N[C@H](Cc2ccc(C(F)(F)F)cc2)[C@@H](O)c2ccc(F)cc2)c2ccccc12` (racemic) [Example 65, N-((1RS,2SR)-2-(4-fluorophenyl)-2-hydroxy-1-((4-(trifluoromethyl)phenyl)methyl)ethyl)-4-((methyloxy)methyl)-1-naphthalenecarboxamide] returned a melting point of 170 to 171 °C.

`O=C(N[C@H](Cc1cccc(OC(F)(F)C(F)F)c1)[C@@H](O)c1ccc(Oc2cccnc2)cc1)c1ccc(F)c2ccccc12` (racemic) [Example 262, 4-fluoro-N-{(1RS,2SR)-2-hydroxy-2-[4-(pyridin-3-yloxy)phenyl]-1-[3-(1,1,2,2-tetrafluoroethoxy)benzyl]ethyl}-1-naphthamide] gave a melting point of 183 to 184 °C.

`CC(C)Oc1cccc(C[C@@H](NC(=O)c2ccc(F)c3ccccc23)[C@@H](O)c2ccc(F)cc2)c1` (racemic) [Example 283, 4-fluoro-N-[(1RS,2SR)-2-(4-fluorophenyl)-2-hydroxy-1-(3-isopropoxybenzyl)ethyl]-1-naphthamide] showed a melting point of 190 to 191 °C.

`O=C(N[C@H](Cc1cccc(OC(F)(F)C(F)F)c1)[C@@H](O)c1ccc(-c2ccccc2Cl)cc1)c1cccc2c1C=CCCC2` (racemic) [Example 293, N-[(1RS,2SR)-2-(2′-chloro[1,1′-biphenyl]-4-yl)-2-hydroxy-1-[3-(1,1,2,2-tetrafluoroethoxy)benzyl]ethyl]-6,7-dihydro-5H-benzo[a]cycloheptene-1-carboxamide] had a melting point of 172 to 173 °C.

For the molecule `CC1(C)COc2ccc(C[C@@H](NC(=O)c3cccc4c3C=CCCC4)[C@@H](O)c3cccc(Cl)c3)cc21` (racemic) [Example 377, N-{(1RS,2SR)-2-(3-chlorophenyl)-1-[(3,3-dimethyl-2,3-dihydro-1-benzofuran-5-yl)methyl]-2-hydroxyethyl}-6,7-dihydro-5H-benzo[a]cycloheptene-1-carboxamide], the melting point is 149 to 150 °C.

With `COCc1oc(-c2ccccc2)c(C(=O)N[C@H](Cc2ccc(C(F)(F)F)cc2)[C@@H](O)c2ccc(F)cc2)c1-c1ccc(F)cc1` (racemic) [Example 91, 4-(4-fluorophenyl)-N-[(1RS,2SR)-2-(4-fluorophenyl)-2-hydroxy-1-[4-(trifluoromethyl)benzyl]ethyl]-5-[(methoxy)methyl]-2-phenylfuran-3-carboxamide], the melting point lay within 204 to 206 °C.

`O=C(N[C@H](Cc1cccc(OC(F)(F)C(F)F)c1)[C@@H](O)c1ccc(OCCCOc2ccccc2)cc1)c1cccc2c1C=CCCC2` (racemic) [Example 247, N-{(1RS,2SR)-2-hydroxy-2-[4-(3-phenoxypropoxy)phenyl]-1-[3-(1,1,2,2-tetrafluoroethoxy)benzyl]ethyl}-6,7-dihydro-5H-benzo[a][7]annulene-1-carboxamide] came in with a melting point of 142 to 143 °C.
